# Legend:
# [1] = biological target: T1, dynamin I-endophilin I interaction (Rattus norvegicus, UniProt O35179); assay: Elution of endophilin I from immunoprecipitated complex by peptide; assay type: binding; conditions: immunoprecipitated complex incubated with peptide
# T1 construct: Syndapin I or dynamin I were immunoprecipitated from nerve terminals; from tissue; host or cells: rat brain crude (P2) synaptosomes
# Experimental: (§1) To determine whether the phospho-box sequence might account for syndapin I recruitment to dynamin I, the ability of a DynI769-784AA peptide (FIG. 5a) to disrupt their interaction was tested. Syndapin I or dynamin I were immunoprecipitated from nerve terminals and the individual protein complexes were incubated with DynI769-784AA (SEQ ID No. 8) peptide (see below). Their interaction in both cases was reduced by the peptide, as indicated by the specific release of either binding partner from the bead-bound complex (FIG. 4c). No elution of endophilin I (FIG. 4c) or amphiphysin I (data not shown) was detected, highlighting the specificity of the interaction.
# (§2) Crude (P2) synaptosomes were prepared from rat brain and lysed as described in Example 1.1.3. Synaptosome lysates were incubated with 5 μg of anti-syndapin I or […] pre-bound to protein G-sepharose (Roche) for 3 h at 4° C. Beads were washed with ice-cold PBS, eluted in SDS-PAGE sample buffer and blotted with anti-syndapin I, anti-endophilin I and anti-dynamin I antibodies.
# amphiphysin I = biological target: T2, amphiphysin I (Rattus norvegicus, UniProt O08838); assay: Elution of amphiphysin I from immunoprecipitated complex by peptide; assay type: binding; conditions: data not shown
# T2 construct: Syndapin I or dynamin I were immunoprecipitated from nerve terminals; from tissue; host or cells: rat brain crude (P2) synaptosomes
# T2 sequence (O08838 1-683): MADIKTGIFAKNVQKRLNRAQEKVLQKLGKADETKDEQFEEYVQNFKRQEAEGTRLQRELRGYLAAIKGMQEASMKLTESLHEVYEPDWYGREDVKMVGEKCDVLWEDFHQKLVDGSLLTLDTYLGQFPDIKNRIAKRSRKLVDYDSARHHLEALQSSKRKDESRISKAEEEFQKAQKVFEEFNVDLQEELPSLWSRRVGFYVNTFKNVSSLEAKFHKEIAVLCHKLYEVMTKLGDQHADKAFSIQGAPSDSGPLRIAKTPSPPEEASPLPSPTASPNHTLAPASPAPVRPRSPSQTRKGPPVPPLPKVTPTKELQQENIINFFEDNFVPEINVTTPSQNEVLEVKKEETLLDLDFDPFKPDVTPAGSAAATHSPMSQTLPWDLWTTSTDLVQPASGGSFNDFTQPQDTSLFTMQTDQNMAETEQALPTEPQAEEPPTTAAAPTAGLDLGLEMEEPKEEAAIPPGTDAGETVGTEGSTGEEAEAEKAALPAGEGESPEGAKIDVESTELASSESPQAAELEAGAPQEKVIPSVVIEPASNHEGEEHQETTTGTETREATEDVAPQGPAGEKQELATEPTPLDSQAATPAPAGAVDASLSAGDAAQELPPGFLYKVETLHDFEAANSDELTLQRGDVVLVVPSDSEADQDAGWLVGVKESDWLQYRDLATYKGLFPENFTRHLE
# Experimental: as §1, §2
# [2] = test system: synaptosomes (synaptic vesicle turnover); assay: SV turnover assay (FM2-10 loading/unloading) in synaptosomes; assay type: cell-based, rat
# Experimental: (§3) In all SV recycling studies synaptosomes were prepared from rat cerebral cortex by centrifugation on discontinuous percoll gradients (Dunkley et al. 1986). The glutamate release assay was performed as described before (Cousin and Robinson 2000a). Data is presented as Ca^2+-dependent glutamate release, calculated as the difference between release in plus and minus Ca^2+ solutions. Penetratin peptides (Genemed Synthesis) were preincubated with the synaptosomes for 30 min before stimulation and had no effect on Ca^2+-independent release of glutamate.
# (§4) Loading of FM2-10 (Molecular Probes) into recycling synaptosomal SVs was measured as previously described. Data is presented as Ca^2+-dependent FM2-10 unloading, which is the difference between release after loading in plus and minus Ca^2+ solutions. Where indicated, synaptosomes were preincubated with penetratin peptide for 30 min prior to stimulation of FM2-10 loading. […] The same assay was used to monitor the effect of penetratin peptide on SV exocytosis. However, in this instance, the synaptosomes were loaded with FM2-10 in plus Ca^2+ Krebs-like solution and, where indicated, were preincubated with penetratin peptide for 30 min prior to stimulation of FM2-10 unloading. Data is presented as Ca^2+-dependent FM2-10 unloading. The SV internalisation assay was performed as previously described.
# SVE in synaptosomes was measured to determine whether the phosphorylation sites in dynamin I play a direct role in SVE. Since isolated nerve terminals cannot be transfected with DNA, a membrane-permeable peptide strategy was employed. Mimetic peptides (DynI769-784AA (SEQ ID No. 8) and DynI769-784EE (SEQ ID No. 9)) were designed corresponding to the amino acid sequence of the dynamin I phospho-box (FIG. 5a) and were tagged with a penetratin heptapeptide RRMKWKK (SEQ ID No. 12) to facilitate their delivery into synaptosomes. Briefly, synaptosomes were preincubated in the presence or absence of either penetratin peptide (250 μM) prior to FM2-10 loading stimulated by 30 mM KCl. Accumulated FM2-10 was unloaded by another KCl stimulus (indicated by the solid bar). […] If the phosphorylation-regulated syndapin I interaction itself is essential for SVE, the penetratin-linked peptides may inhibit the process. […] The DynI769-784AA peptide (250 μM) inhibited turnover by more than 40% (57.1±2.1% of control), compared to less than 20% with the DynI769-784EE peptide (250 μM, 81.1±2.4% of control).
# [3] = test system: synaptosomes (SV exocytosis); assay: KCl-evoked Ca2+-dependent glutamate release assay in synaptosomes; assay type: cell-based, rat; conditions: peptide preincubated 30 min; KCl stimulation
# Experimental: as §3
# A block in SV turnover cannot be ascribed to an inhibition of SVE until an effect on exocytosis has been excluded. Two independent exocytosis assays were conducted to assess this: endogenous glutamate release and FM2-10 unloading. Neither the DynI769-784AA nor DynI769-784EE peptide had any significant effect on KCl-evoked Ca^2+-dependent glutamate release (DynI769-784AA […]±8.4% of control; DynI769-784EE […]±9.5% of control, FIG. 5c). Both peptides had small effects on FM2-10 unloading evoked by 30 mM KCl (DynI769-784AA −81.1±0.8% of control; DynI769-784EE −82.3±0.6% of control, FIG. 5d). Finally, the extent of SVE inhibition by the peptides was quantified by calculating “retrieval efficiency” which takes into account prior exocytosis; a value of less than one indicating a selective SVE inhibition. […]
# [4] = test system: synaptosomes (SV retrieval from the plasma membrane); assay: FM2-10 SV internalisation assay (purified SVs from synaptosomes); assay type: cell-based, rat
# Experimental: as §4
# If SVE was arrested before SV fission occurred, […]. SVs were purified and their fluorescence values were corrected for dye uptake in the absence of Ca^2+ (Ca^2+-dependent) and normalised to control (n=3, mean ±s.e.m.).
# T1 sequence (O35179 whole entry): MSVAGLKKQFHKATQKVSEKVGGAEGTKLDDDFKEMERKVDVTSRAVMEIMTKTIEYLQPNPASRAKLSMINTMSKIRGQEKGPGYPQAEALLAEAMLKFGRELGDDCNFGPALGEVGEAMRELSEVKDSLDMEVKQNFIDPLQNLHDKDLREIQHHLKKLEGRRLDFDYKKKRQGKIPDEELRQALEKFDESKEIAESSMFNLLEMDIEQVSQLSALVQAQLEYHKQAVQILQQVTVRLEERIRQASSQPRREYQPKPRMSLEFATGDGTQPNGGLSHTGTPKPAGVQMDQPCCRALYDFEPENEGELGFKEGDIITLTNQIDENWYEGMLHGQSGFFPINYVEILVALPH
substance,measurement,setting,value
"DynI769-784AA: Dynamin I phospho-box mimetic peptide (residues 769-784), AA mutant, tagged with penetratin heptapeptide RRMKWKK (RRMKWKKPAGRRAPTSAPTPQRR; listed as Rattus norvegicus)",elution of endophilin I from complex,[1],No elution
same,elution of amphiphysin I from complex,amphiphysin I,No elution
same,inhibition of SV turnover,[2]; peptide 250 μM,more than 40%
same,SV turnover,"[2]; peptide 250 μM, 30 min preincubation, FM2-10 loading with 30 mM KCl",57.1±2.1 % of control
same,retrieval efficiency (SV turnover/exocytosis),"[2]; using data from either exocytosis assay, value below one = selective SVE inhibition",robust inhibition
same,KCl-evoked Ca2+-dependent glutamate release,[3],92.5±8.4 % of control
same,inhibition of FM2-10 accumulation in SVs,[4],approximately 35%
same,FM2-10 accumulation in purified SVs (Ca2+-dependent),"[4]; n=3, mean ± s.e.m.",64.9±5.5 % of control

# Source: patent publication US20080306007A1, “AGENTS FOR PROPHYLAXIS OR TREATMENT OF NEUROLOGICAL RELATED DISEASES AND CONDITIONS” (Newcastle Innovation Limited, priority 2007, published 2008)
